Values after ≈ are worked out from the molar mass of the structure shown.
Test system: MTB H37Rv
Assay: Bacteriostasis experiment: MIC in 96-well plate, two-fold dilution method
Type: cell-based, Mycobacterium tuberculosis
Conditions: MTB H37Rv (ATCC 27294), 7H9 medium, 37° C., about 10 days

| SMILES | Inhibitory activity against Mycobacterium tuberculosis, MIC, MTB H37Rv |
| --- | --- |
| CCCSc1nc2c(c(=O)[nH]1)C(c1ccc3occc3c1)CC(=O)N2 (stereo not drawn) [LSL-11-17, 2-propylmercapto-5-(benzofuran-5-yl)-5,6-dihydropyrido[2,3-d]pyrimidin-4,7(3H,8H)-dione] | 4 µg/mL |

Same assay, conditions: MTB H37Rv, statement on Table 1 data

| SMILES | anti-mycobacterium tuberculosis MIC compared with the positive control drug INH |
| --- | --- |
| CCCSc1nc2c(c(=O)[nH]1)C(c1ccc(O)c([N+](=O)[O-])c1)CC(=O)N2 (stereo not drawn) [LSL-10-04, 2-propylmercapto-5-(4-hydroxy-3-nitrophenyl)-5,6-dihydropyrido[2,3-d]pyrimidin-4,7(3H,8H)-dione] | equivalent to that of the positive control drug INH |
| CCCOc1ccc(C2CC(=O)Nc3nc(SCCC)[nH]c(=O)c32)c(O)c1 (stereo not drawn) [LSL-9-29, 2-propylmercapto-5-(2-hydroxy-4-propoxyphenyl)-5,6-dihydropyrido[2,3-d]pyrimidin-4,7(3H,8H)-dione] | equivalent to that of the positive control drug INH |
| CCCCCCCOc1ccc(C2CC(=O)Nc3nc(SCCC)[nH]c(=O)c32)cc1 (stereo not drawn) [LSL-11-39, 2-propylmercapto-5-(4-heptoxyphenyl)-5,6-dihydropyrido[2,3-d]pyrimidin-4,7(3H,8H)-dione] | equivalent to that of the positive control drug INH |
| CCCSc1nc2nccc(-c3ccc(OC)cc3)c2c(=O)[nH]1 [LSL-11-02, 2-propylmercapto-5-(4-methoxyphenyl)-pyrido[2,3-d]pyrimidin-4(3H)-one] | equivalent to that of the positive control drug INH |
| CCCSc1nc2nccc(-c3ccc4ncccc4c3)c2c(=O)[nH]1 [LSL-11-08, 2-propylmercapto-5-(quinolin-6-yl)-pyrido[2,3-d]pyrimidin-4(3H)-one] | equivalent to that of the positive control drug INH |

Same assay, conditions: Mycobacterium tuberculosis, ATCC 27294 / H37Rv, 240 h, MTB H37Rv (ATCC 27294), 7H9 medium, 37° C., about 10 days; read-out: Inhibitory activity against Mycobacterium tuberculosis, MIC, MTB H37Rv

| SMILES | MIC |
| --- | --- |
| CCCSc1nc2c(c(=O)[nH]1)C(c1ccc(O)c([N+](=O)[O-])c1)CC(=O)N2 (stereo not drawn) [LSL-10-04, 2-propylmercapto-5-(4-hydroxy-3-nitrophenyl)-5,6-dihydropyrido[2,3-d]pyrimidin-4,7(3H,8H)-dione] | 0.625 µg/mL (≈ 1.66 µM) |
| CCCSc1nc2c(c(=O)[nH]1)C(c1ccc3nccnc3c1)CC(=O)N2 (stereo not drawn) [LSL-11-34, 2-propylmercapto-5-(quinoxalin-6-yl)-5,6-dihydropyrido[2,3-d]pyrimidin-4,7(3H,8H)-dione] | 4 µg/mL (≈ 10.9 µM) |
| CCCSc1nc2c(c(=O)[nH]1)C(c1ccc(N)cc1)CC(=O)N2 (stereo not drawn) [LSL-9-44, 2-propylmercapto-5-(4-aminophenyl)-5,6-dihydropyrido[2,3-d]pyrimidin-4,7(3H,8H)-dione] | 16 µg/mL (≈ 48.4 µM) |
| COc1ccc(C2CC(=O)Nc3nc(SC)[nH]c(=O)c32)cc1O (stereo not drawn) [LSL-7-39, 2-methylmercapto-5-(3-hydroxy-4-methoxyphenyl)-5,6-dihydropyrido[2,3-d]pyrimidin-4,7(3H,8H)-dione] | 16 µg/mL (≈ 48 µM) |
| CCCSc1nc2c(c(=O)[nH]1)C(c1ccc(Br)cc1[N+](=O)[O-])CC(=O)N2 (stereo not drawn) [LSL-11-25, 2-propylmercapto-5-(2-nitro-4-bromophenyl)-5,6-dihydropyrido[2,3-d]pyrimidin-4,7(3H,8H)-dione] | 4 µg/mL (≈ 9.11 µM) |
| CCCSc1nc2c(c(=O)[nH]1)C(c1ccc(O)c(O)c1)CC(=O)N2 (stereo not drawn) [LSL-7-42, 2-propylmercapto-5-(3,4-dihydroxyphenyl)-5,6-dihydropyrido[2,3-d]pyrimidin-4,7(3H,8H)-dione] | 32 µg/mL (≈ 92.1 µM) |
| CCCSc1nc2c(c(=O)[nH]1)C(c1cnc3ccccc3c1)CC(=O)N2 (stereo not drawn) [LSL-11-36, 2-propylmercapto-5-(quinolin-3-yl)-5,6-dihydropyrido[2,3-d]pyrimidin-4,7(3H,8H)-dione] | 8 µg/mL (≈ 21.8 µM) |
| CCCSc1nc2c(c(=O)[nH]1)C(C1CCCCC1)CC(=O)N2 (stereo not drawn) [LSL-11-30, 2-propylmercapto-5-cyclohexyl-5,6-dihydropyrido[2,3-d]pyrimidin-4,7(3H,8H)-dione] | 16 µg/mL (≈ 49.8 µM) |
| CCCSc1nc2c(c(=O)[nH]1)C(c1cc(O)c(O)c(O)c1)CC(=O)N2 (stereo not drawn) [LSL-9-33, 2-propylmercapto-5-(3,4,5-trihydroxyphenyl)-5,6-dihydropyrido[2,3-d]pyrimidin-4,7(3H,8H)-dione] | 64 µg/mL (≈ 176 µM) |
| CCCOc1ccc(C2CC(=O)Nc3nc(SCCC)[nH]c(=O)c32)c(O)c1 (stereo not drawn) [LSL-9-29, 2-propylmercapto-5-(2-hydroxy-4-propoxyphenyl)-5,6-dihydropyrido[2,3-d]pyrimidin-4,7(3H,8H)-dione] | 0.5 µg/mL (≈ 1.28 µM) |
| COc1ccc(C2CC(=O)Nc3nc(SC)[nH]c(=O)c32)c(O)c1 (stereo not drawn) [LSL-9-01, 2-methylmercapto-5-(2-hydroxy-4-methoxyphenyl)-5,6-dihydropyrido[2,3-d]pyrimidin-4,7(3H,8H)-dione] | 8 µg/mL (≈ 24 µM) |
| CCCSc1nc2c(c(=O)[nH]1)C(c1cccnc1)CC(=O)N2 (stereo not drawn) [LSL-11-28, 2-propylmercapto-5-(pyridin-3-yl)-5,6-dihydropyrido[2,3-d]pyrimidin-4,7(3H,8H)-dione] | 2 µg/mL (≈ 6.32 µM) |
| CCCSc1nc2c(c(=O)[nH]1)C(c1ccc(OC)c(O)c1O)CC(=O)N2 (stereo not drawn) [LSL-9-23, 2-propylmercapto-5-(2,3-dihydroxy-4-methoxyphenyl)-5,6-dihydropyrido[2,3-d]pyrimidin-4,7(3H,8H)-dione] | 64 µg/mL (≈ 170 µM) |
| CCCSc1nc2c(c(=O)[nH]1)C(c1cccc(OC)c1)CC(=O)N2 (stereo not drawn) [LSL-9-47, 2-propylmercapto-5-(3-methoxyphenyl)-5,6-dihydropyrido[2,3-d]pyrimidin-4,7(3H,8H)-dione] | 4 µg/mL (≈ 11.6 µM) |
| CCCSc1nc2nccc(-c3ccc(OC)cc3)c2c(=O)[nH]1 [LSL-11-02, 2-propylmercapto-5-(4-methoxyphenyl)-pyrido[2,3-d]pyrimidin-4(3H)-one] | 0.5 µg/mL (≈ 1.53 µM) |
| CCCSc1nc2c(c(=O)[nH]1)C(c1ccnc3ccccc13)CC(=O)N2 (stereo not drawn) [LSL-10-06, 2-propylmercapto-5-(quinolin-4-yl)-5,6-dihydropyrido[2,3-d]pyrimidin-4,7(3H,8H)-dione] | 4 µg/mL (≈ 10.9 µM) |
| CCCSc1nc2c(c(=O)[nH]1)C(c1ccc(OC)c(O)c1)CC(=O)N2 (stereo not drawn) [LSL-7-38, 2-propylmercapto-5-(3-hydroxy-4-methoxyphenyl)-5,6-dihydropyrido[2,3-d]pyrimidin-4,7(3H,8H)-dione] | 1 µg/mL (≈ 2.77 µM) |
| CCCSc1nc2nccc(-c3ccc4ncccc4c3)c2c(=O)[nH]1 [LSL-11-08, 2-propylmercapto-5-(quinolin-6-yl)-pyrido[2,3-d]pyrimidin-4(3H)-one] | 0.25 µg/mL (≈ 0.718 µM) |

| SMILES | MIC |
| --- | --- |
| CCCSc1nc2c(c(=O)[nH]1)C(c1cccc3ncccc13)CC(=O)N2 (stereo not drawn) [LSL-10-07, 2-propylmercapto-5-(quinolin-5-yl)-5,6-dihydropyrido[2,3-d]pyrimidin-4,7(3H,8H)-dione] | 16 µg/mL (≈ 43.7 µM) |
| C=CCSc1nc2c(c(=O)[nH]1)C(c1ccc(OC)c(O)c1)CC(=O)N2 (stereo not drawn) [LSL-9-15, 2-allylmercapto-5-(3-hydroxy-4-methoxyphenyl)-5,6-dihydropyrido[2,3-d]pyrimidin-4,7(3H,8H)-dione] | 2 µg/mL (≈ 5.56 µM) |
| CCCSc1nc2c(c(=O)[nH]1)C(c1cccc(O)c1)CC(=O)N2 (stereo not drawn) [LSL-9-49, 2-propylmercapto-5-(3-hydroxyphenyl)-5,6-dihydropyrido[2,3-d]pyrimidin-4,7(3H,8H)-dione] | 16 µg/mL (≈ 48.3 µM) |
| CCCSc1nc2c(c(=O)[nH]1)C(c1ccc3c(c1)CCO3)CC(=O)N2 (stereo not drawn) [LSL-11-33, 2-propylmercapto-5-(2,3-dihydrobenzofuran-5-yl)-5,6-dihydropyrido[2,3-d]pyrimidin-4,7(3H,8H)-dione] | 2 µg/mL (≈ 5.6 µM) |
| CCCSc1nc2c(c(=O)[nH]1)C(c1ccc(S(C)(=O)=O)cc1)CC(=O)N2 (stereo not drawn) [LSL-11-20, 2-propylmercapto-5-(4-methanesulfonylphenyl)-5,6-dihydropyrido[2,3-d]pyrimidin-4,7(3H,8H)-dione] | 1 µg/mL (≈ 2.54 µM) |
| CCCSc1nc2c(c(=O)[nH]1)C(c1ccc(C#N)cc1)CC(=O)N2 (stereo not drawn) [LSL-10-01, 2-propylmercapto-5-(4-cyanophenyl)-5,6-dihydropyrido[2,3-d]pyrimidin-4,7(3H,8H)-dione] | 16 µg/mL (≈ 47 µM) |
| CCCSc1nc2c(c(=O)[nH]1)C(c1ccc(OCc3ccccc3)cc1)CC(=O)N2 (stereo not drawn) [LSL-9-31, 2-propylmercapto-5-(4-benzyloxyphenyl)-5,6-dihydropyrido[2,3-d]pyrimidin-4,7(3H,8H)-dione] | 16 µg/mL (≈ 38 µM) |
| CCCSc1nc2c(c(=O)[nH]1)C(c1ccccc1[N+](=O)[O-])CC(=O)N2 (stereo not drawn) [LSL-10-03, 2-propylmercapto-5-(2-nitrophenyl)-5,6-dihydropyrido[2,3-d]pyrimidin-4,7(3H,8H)-dione] | 8 µg/mL (≈ 22.2 µM) |
| CCCSc1nc2c(c(=O)[nH]1)C(c1ccc(C)cc1)CC(=O)N2 (stereo not drawn) [LSL-9-37, 2-propylmercapto-5-(4-methylphenyl)-5,6-dihydropyrido[2,3-d]pyrimidin-4,7(3H,8H)-dione] | 2 µg/mL (≈ 6.07 µM) |
| CCCSc1nc2c(c(=O)[nH]1)C(c1ccc(N3CCOCC3)cc1)CC(=O)N2 (stereo not drawn) [LSL-10-43, 2-propylmercapto-5-(4-morpholinophenyl)-5,6-dihydropyrido[2,3-d]pyrimidin-4,7(3H,8H)-dione] | 1 µg/mL (≈ 2.5 µM) |
| CCCSc1nc2c(c(=O)[nH]1)C(c1ccc(N3CCSCC3)cc1)CC(=O)N2 (stereo not drawn) [LSL-10-50, 2-propylmercapto-5-(4-thiomorpholinophenyl)-5,6-dihydropyrido[2,3-d]pyrimidin-4,7(3H,8H)-dione] | 1 µg/mL (≈ 2.4 µM) |
| CCCSc1nc2c(c(=O)[nH]1)C(c1ccncc1)CC(=O)N2 (stereo not drawn) [LSL-11-29, 2-propylmercapto-5-(pyridin-4-yl)-5,6-dihydropyrido[2,3-d]pyrimidin-4,7(3H,8H)-dione] | 8 µg/mL (≈ 25.3 µM) |
| CCCSc1nc2c(c(=O)[nH]1)C(c1ccc(C(F)(F)F)cc1)CC(=O)N2 (stereo not drawn) [LSL-9-38, 2-propylmercapto-5-(4-trifluoromethylphenyl)-5,6-dihydropyrido[2,3-d]pyrimidin-4,7(3H,8H)-dione] | 16 µg/mL (≈ 41.7 µM) |
| CCCSc1nc2c(c(=O)[nH]1)C(c1ccccc1)CC(=O)N2 (stereo not drawn) [LSL-10-05, 2-propylmercapto-5-phenyl-5,6-dihydropyrido[2,3-d]pyrimidin-4,7(3H,8H)-dione] | 8 µg/mL (≈ 25.4 µM) |
| CCCSc1nc2c(c(=O)[nH]1)C(c1ccc(Br)cc1)CC(=O)N2 (stereo not drawn) [LSL-9-26, 2-propylmercapto-5-(4-bromophenyl)-5,6-dihydropyrido[2,3-d]pyrimidin-4,7(3H,8H)-dione] | 2 µg/mL (≈ 5.07 µM) |
| CCCSc1nc2c(c(=O)[nH]1)C(c1ccc(I)cc1)CC(=O)N2 (stereo not drawn) [LSL-9-19, 2-propylmercapto-5-(4-iodophenyl)-5,6-dihydropyrido[2,3-d]pyrimidin-4,7(3H,8H)-dione] | > 64 µg/mL |
| CCCSc1nc2c(c(=O)[nH]1)C(c1ccccc1OC)CC(=O)N2 (stereo not drawn) [LSL-9-48, 2-propylmercapto-5-(2-methoxyphenyl)-5,6-dihydropyrido[2,3-d]pyrimidin-4,7(3H,8H)-dione] | 16 µg/mL (≈ 46.3 µM) |

Same assay, conditions: Mycobacterium tuberculosis, ATCC 27294 / H37Rv, 240 h, read-out: Inhibitory activity against Mycobacterium tuberculosis, MIC, MTB H37Rv

| SMILES | MIC |
| --- | --- |
| CCCCCCCOc1ccc(C2CC(=O)Nc3nc(SCCC)[nH]c(=O)c32)cc1 (stereo not drawn) [LSL-11-39, 2-propylmercapto-5-(4-heptoxyphenyl)-5,6-dihydropyrido[2,3-d]pyrimidin-4,7(3H,8H)-dione] | 0.625 µg/mL (≈ 1.45 µM) |

From US20230303561A1, “PYRIMIDINONE DERIVATIVE, PREPARATION METHOD THEREOF AND USE THEREOF IN RESISTING MYCOBACTERIUM TUBERCULOSIS INFECTION” (INSTITUTE OF MEDICINAL BIOTECHNOLOGY, CHINESE ACADEMY OF …, priority 2020, published 2023)
